The term half-life denotes how long it takes for the measured level to halve. In general, Cmax refers to the peak of the concentration-time curve. By EC50 is commonly meant the concentration giving half of the maximal effect. A word on the CLint scaled: it is the capacity of the preparation to metabolise the compound, expressed as a volume cleared per time. Broadly, the IC50 is the concentration needed to halve the response being measured.

Data set [1] is described as follows: Pharmacokinetic studies in Sprague Dawley rats (oral gavage and IV). Conditions: rat, male SD rats, plasma; for AUC(0-t): read-out: AUC0-24 h; for bioavailability: oral 5 mg/kg vs IV 1 mg/kg, read-out: Bioavailibility F %. It counts as in vivo. The protocol:
The pharmacokinetics of test compounds was evaluated in male SD rats when administered via oral gavage and IV injection. For oral dosing, compound was formulated in 0.5% methylcellulose and administered at doses of 5 mg/kg (3 rats per dose level) and volume of 10 mL/kg. For IV dosing, compound was formulated in 5% DMSO/5% Solutol/90% saline and administered to 3 rats at a dose of 1 mg/kg and a volume of 5 mL/kg. The rats were fasted overnight before administration. Plasma samples were collected predose and at 0.5, 1, 3, 6, 9, 12, and 24 hours postdose. The samples were analyzed by LC/MS/MS and the concentration of test compound at each timepoint was determined by linear regression. Pharmacokinetic parameters were calculated from the plasma concentrations using Pheonix WinNonlin.

The next data set relates to NQO1. The data set is described as follows: NQO1 activity assay in Raw264.7 cell lysates. It counts as cell-based. Conditions: Mus musculus; Raw264.7 cells, 48 hours treatment. The protocol:
Raw264.7 cells were seeded in DMEM+10% FBS in 96-well plates at a density of 10,000 cells per well. 6 hours after plating, cells were treated with DMSO or test compounds (top dose 100 nM, 1:4 serial dilution, 8-point) for 48 hours. NQO1 activity was then detected in cell lysates using NQO1 activity assay kit (Abeam, Cat#ab184867). NQO1 activity was then plotted against compound concentration, and EC50 values were calculated using four-parameter algorithm in Graphpad Prism.

Data set [2] is described as follows: Metabolic stability in mouse liver microsomes. It counts as in vitro ADME, CD-1 mouse. Conditions: CD-1. The protocol:
(§1) The metabolic stability of test compounds was examined in CD-1 mouse, Sprague Dawley rat, Beagle dog, cynomolgus monkey, and human liver microsomes. Test compound (final concentration 1 μM) was mixed with diluted liver microsomes from each of the 5 species and a small aliquot was taken at 0, 5, 10, 20, 30, and 60 minutes for LC/MS/MS analysis. Intrinsic clearance and half-life were calculated.
For orientation: Microsomes from liver hold many membrane-bound enzymes, among them those of drug oxidation.

The next data set addresses T1, CYP2C9 (Homo sapiens, UniProt P11712).
T1 construct: studied in liver microsomes of CD-1 mouse, Sprague Dawley rat, Beagle dog, cynomolgus monkey, and human; from tissue; host or cells: liver microsomes
The experiment in a line: CYP450 enzyme inhibition in liver microsomes (cocktail probe incubation). It counts as in vitro ADME. As to conditions: species not given, 0.05-50 μM tested. The protocol:
(§2) The inhibition potential of test compounds towards major drug metabolizing CYP450 enzymes was studied in liver microsomes of CD-1 mouse, Sprague Dawley rat, Beagle dog, cynomolgus monkey, and human. The inhibition of CYP1A2, CYP2C9, CYP2C19, CYP2D6, and CYP3A4 was assessed using CYP450 specific probe reactions in a cocktail incubation. Seven concentrations of test compounds (0.05, 0.15, 0.5, 1.5, 5, 15, and 50 μM) were evaluated. In addition, known inhibitors for each probe reaction were included as positive controls and incubated at a single concentration above their respective IC50.

The target in another data set is T2, CYP3A4 (Homo sapiens, UniProt P08684).
T2 construct: studied in liver microsomes of CD-1 mouse, Sprague Dawley rat, Beagle dog, cynomolgus monkey, and human; from tissue; host or cells: liver microsomes
Described as above. It counts as in vitro ADME. Conditions: species not given, 0.05-50 μM tested. The protocol:
as §2

For the next data set, the target named is T3, CYP1A2 (Homo sapiens, UniProt P05177).
T3 construct: studied in liver microsomes of CD-1 mouse, Sprague Dawley rat, Beagle dog, cynomolgus monkey, and human; from tissue; host or cells: liver microsomes
T3 sequence (P05177 1-516): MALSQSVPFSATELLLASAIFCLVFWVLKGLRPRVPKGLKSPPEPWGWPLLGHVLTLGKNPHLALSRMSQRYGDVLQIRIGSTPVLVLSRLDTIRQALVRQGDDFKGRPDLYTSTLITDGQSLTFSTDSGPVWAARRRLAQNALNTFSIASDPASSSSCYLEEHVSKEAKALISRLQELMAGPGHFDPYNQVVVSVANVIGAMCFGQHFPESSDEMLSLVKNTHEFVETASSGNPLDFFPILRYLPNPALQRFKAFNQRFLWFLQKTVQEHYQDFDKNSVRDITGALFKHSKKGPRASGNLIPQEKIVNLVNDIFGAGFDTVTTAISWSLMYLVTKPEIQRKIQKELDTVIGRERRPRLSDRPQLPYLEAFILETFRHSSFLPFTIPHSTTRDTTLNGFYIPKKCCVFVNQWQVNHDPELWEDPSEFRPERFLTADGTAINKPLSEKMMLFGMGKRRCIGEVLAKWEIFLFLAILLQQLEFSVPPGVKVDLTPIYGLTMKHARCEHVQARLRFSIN
The description is as above. As to conditions: species not given, 0.05-50 μM tested. It counts as in vitro ADME. The protocol:
as §2

The target in another data set is T4, CYP2D6 (Homo sapiens, UniProt P10635).
T4 construct: studied in liver microsomes of CD-1 mouse, Sprague Dawley rat, Beagle dog, cynomolgus monkey, and human; from tissue; host or cells: liver microsomes
The data set is described as above. It counts as in vitro ADME. Conditions: species not given, 0.05-50 μM tested. The protocol:
as §2

The next data set deals with T5, CYP2C19 (Homo sapiens, UniProt P33261).
T5 construct: studied in liver microsomes of CD-1 mouse, Sprague Dawley rat, Beagle dog, cynomolgus monkey, and human; from tissue; host or cells: liver microsomes
Described as above. Conditions: species not given, 0.05-50 μM tested. It counts as in vitro ADME. The protocol:
as §2

A short description of data set [3]: Metabolic stability in dog liver microsomes. As to conditions: Beagle. It counts as in vitro ADME. The protocol:
as §1

Data set [4] is described as follows: Metabolic stability in monkey liver microsomes. It counts as in vitro ADME, cynomolgus monkey. The protocol: as §1
Data set [5] can be described thus: Metabolic stability in human liver microsomes. It counts as in vitro ADME. The protocol:
as §1

Data set [6] can be described thus: Metabolic stability in rat liver microsomes. It counts as in vitro ADME. As to conditions: Sprague Dawley. The protocol: as §1
Data set [7] deals with IFNγ-induced NO production in Raw 264.7 cells. The data set is described as follows: Nitric oxide assay: suppression of IFNγ-induced NO production (Griess nitrite, adjusted to live cell numbers). It counts as cell-based. As to conditions: Mus musculus, RAW264.7, 2 h pretreatment, IFNγ 10 ng/ml for 24 hours. The protocol: Raw 264.7 cells were seeded in 96-well plates at a density of 30, 000 cells per well in DMEM+10% FBS and incubated overnight. The next day, cell media was replaced by DMEM+2% FBS. Cells were pretreated with DMSO or test compounds (top dose 100 nM, 1:4 serial dilution, 10-point) for 2 hours and then treated with recombinant mouse IFNγ (R&D, Cat# 485-MI-100) at a final concentration of 10 ng/ml for 24 hours. Nitrite levels were measured in culture media as a surrogate for nitric oxide using the Griess Reagent System (Promega, Cat# G2930). Cell viability was determined using CellTiter Glo reagents (Promega, Cat#G7572). The nitrite levels were adjusted to live cell numbers and inhibition percentage was calculated. The inhibition percentage was then plotted against compound concentration, and IC50 values were calculated using four-parameter algorithm in Graphpad Prism.

Like-named read-outs stand apart in the source and are kept apart here.

T5 sequence (P33261 whole entry): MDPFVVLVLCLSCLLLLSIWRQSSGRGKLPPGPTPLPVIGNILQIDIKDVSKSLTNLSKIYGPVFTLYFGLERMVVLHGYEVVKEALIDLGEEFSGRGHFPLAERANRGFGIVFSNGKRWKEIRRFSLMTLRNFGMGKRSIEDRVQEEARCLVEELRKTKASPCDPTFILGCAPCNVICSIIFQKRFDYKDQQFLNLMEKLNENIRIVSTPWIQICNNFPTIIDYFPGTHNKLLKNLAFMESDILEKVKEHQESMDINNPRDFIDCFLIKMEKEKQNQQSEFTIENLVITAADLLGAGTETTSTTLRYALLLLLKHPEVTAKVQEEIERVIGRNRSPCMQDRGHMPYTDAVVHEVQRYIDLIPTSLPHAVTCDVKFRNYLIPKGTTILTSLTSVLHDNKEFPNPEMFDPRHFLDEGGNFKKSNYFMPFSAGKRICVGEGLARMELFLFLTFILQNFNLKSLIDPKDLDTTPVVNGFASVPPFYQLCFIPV
T2 sequence (P08684 whole entry): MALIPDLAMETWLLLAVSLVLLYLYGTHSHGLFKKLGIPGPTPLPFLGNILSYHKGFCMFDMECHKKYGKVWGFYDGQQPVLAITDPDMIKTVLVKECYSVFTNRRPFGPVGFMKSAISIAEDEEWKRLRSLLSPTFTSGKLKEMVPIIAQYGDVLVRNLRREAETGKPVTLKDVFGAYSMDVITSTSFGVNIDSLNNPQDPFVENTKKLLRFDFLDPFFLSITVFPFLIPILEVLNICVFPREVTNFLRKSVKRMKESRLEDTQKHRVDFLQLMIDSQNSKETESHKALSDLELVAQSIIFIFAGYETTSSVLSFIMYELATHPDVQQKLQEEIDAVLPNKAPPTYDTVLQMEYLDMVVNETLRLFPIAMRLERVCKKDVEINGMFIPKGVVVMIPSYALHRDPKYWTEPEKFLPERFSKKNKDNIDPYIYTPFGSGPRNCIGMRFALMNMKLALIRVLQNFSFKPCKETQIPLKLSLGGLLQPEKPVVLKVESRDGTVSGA
T1 sequence (P11712 whole entry): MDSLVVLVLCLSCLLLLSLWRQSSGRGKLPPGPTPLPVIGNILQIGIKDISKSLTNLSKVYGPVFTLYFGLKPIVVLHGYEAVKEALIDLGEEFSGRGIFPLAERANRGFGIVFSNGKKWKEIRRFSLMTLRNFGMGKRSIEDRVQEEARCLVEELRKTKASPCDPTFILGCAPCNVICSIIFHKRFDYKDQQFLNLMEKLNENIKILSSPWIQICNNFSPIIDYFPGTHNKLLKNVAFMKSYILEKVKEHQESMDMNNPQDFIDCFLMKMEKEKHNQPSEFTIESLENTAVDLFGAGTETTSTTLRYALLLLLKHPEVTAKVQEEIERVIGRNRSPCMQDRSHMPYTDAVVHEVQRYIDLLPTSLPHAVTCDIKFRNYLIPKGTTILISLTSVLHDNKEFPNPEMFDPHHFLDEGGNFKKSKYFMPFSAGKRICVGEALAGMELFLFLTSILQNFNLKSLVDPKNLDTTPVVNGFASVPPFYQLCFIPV
T4 sequence (P10635 whole entry): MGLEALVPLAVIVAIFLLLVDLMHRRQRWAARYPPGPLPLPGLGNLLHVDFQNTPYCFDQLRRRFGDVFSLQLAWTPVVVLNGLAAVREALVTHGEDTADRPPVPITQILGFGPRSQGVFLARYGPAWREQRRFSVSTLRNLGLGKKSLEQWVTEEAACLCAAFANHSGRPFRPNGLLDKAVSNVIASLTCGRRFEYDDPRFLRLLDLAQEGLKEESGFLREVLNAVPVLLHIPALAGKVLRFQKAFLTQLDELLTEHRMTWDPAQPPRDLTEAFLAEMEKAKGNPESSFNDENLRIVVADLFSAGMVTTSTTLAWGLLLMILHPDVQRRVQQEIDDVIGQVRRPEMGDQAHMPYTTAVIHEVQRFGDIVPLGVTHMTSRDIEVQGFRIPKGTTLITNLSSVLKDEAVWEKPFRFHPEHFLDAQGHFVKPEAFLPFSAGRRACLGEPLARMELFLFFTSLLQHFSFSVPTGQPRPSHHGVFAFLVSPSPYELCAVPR

In data set [1] (IV (1 mg/kg)), `CC1(C)C(=O)C(C#N)=C[C@]2(C)C3=CC(=O)[C@@H]4[C@@H]5C[C@@](C)(C#N)CC[C@]5(C)CC[C@@]4(C)[C@]3(C)CC[C@@H]12` [Example 2, (2S,4aS,6aR,6bS,8aR,12aS,14aR,14bS)-2,4a,6a,6b,9,9,12a-heptamethyl-10,14-dioxo-1,2,3,4,4a,5,6,6a,6b,7,8,8a,9,10,12a,14,14a,14b-octadecahydropicene-2,11-dicarbonitrile] registered a C0 of 0.5 µg/mL. Moreover, in data set [1] (IV (1 mg/kg)), the clearance worked out at 3.18 L/h/kg. For the same molecule, the values for the half-life in data set [1] (IV (1 mg/kg)) and in data set [1] (Oral (5 mg/kg)) were 72 min and 78 min, respectively. Besides, the AUC(0-t) is 0.314 µg·h/mL in data set [1] (IV (1 mg/kg)) and 0.521 µg·h/mL in data set [1] (Oral (5 mg/kg)). In addition, in [1] (Oral (5 mg/kg)), the Cmax turned out to be 0.177 µg/mL. For the same molecule, the bioavailability in [1] is 33.2%. The molecule also yielded an EC50 with NQO1 of under 0.01 µM. Besides, the CLint scaled at 1 μM in [2] was determined as 105 L/h/kg; in data set [3], 18.8 L/h/kg; in data set [4] it was 46.9 L/h/kg; in [5] it was 23.8 L/h/kg; in [6] it was 9.44 L/h/kg. The half-life at 1 μM in [2] came out at 3.1 min; in data set [3], 6.4 min; in [4] it was 2.4 min; in data set [5], 3.1 min; in data set [6] it was 15.9 min. Further, the IC50 against CYP2C9 was 2.2 µM; on CYP3A4, 1.7 µM; against CYP1A2 it was over 50 µM; on CYP2D6 it was 20.2 µM; on CYP2C19, 25.4 µM.

As for `CNC(=NC#N)NC[C@]12CCC(C)(C)C[C@H]1[C@H]1C(=O)C=C3[C@@]4(C)C=C(C#N)C(=O)C(C)(C)[C@@H]4CC[C@@]3(C)[C@]1(C)CC2` [Example 3, 2-cyano-1-(((4aS,6aR,6bS,8aR,12aS,14aR,14bS)-11-cyano-2,2,6a,6b,9,9,12a-heptamethyl-10,14-dioxo-1,3,4,5,6,6a,6b,7,8,8a,9,10,12a,14,14a,14b-hexadecahydropicen-4a(2H)-yl)methyl)-3-methylguanidine], the IC50 in data set [7] was under 0.01 µM; against CYP2C9, 3.4 µM; on CYP3A4 it was 6.7 µM; against CYP1A2, over 50 µM; at CYP2D6 it was 4.7 µM; on CYP2C19, 17.8 µM. The EC50 in the data set with NQO1 is 0.01 to 0.1 µM. The CLint scaled at 1 μM in [2] turned out to be 9.03 L/h/kg; in data set [3], 4.9 L/h/kg; in data set [4] it was 9.35 L/h/kg; in data set [5] it was 3.04 L/h/kg; in data set [6] it was 3.02 L/h/kg. Moreover, the half-life at 1 μM in [2] is 36.5 min; in data set [3], 24.5 min; in data set [4], 12 min; in data set [5] it was 24.6 min; in [6], 49.6 min.

`C/S(CC(=O)N[C@]12CCC(C)(C)C[C@H]1[C@H]1C(=O)C=C3[C@@]4(C)C=C(C#N)C(=O)C(C)(C)[C@@H]4CC[C@@]3(C)[C@]1(C)CC2)=N\C#N` (stereo partly drawn) [Example 5, N-((4aS,6aR,6bS,8aR,12aS,14aR,14bS)-11-cyano-2,2,6a,6b,9,9,12a-heptamethyl-10,14-dioxo-1,3,4,5,6,6a,6b,7,8,8a,9,10,12a,14,14a,14b-hexadecahydropicen-4a(2H)-yl)-2-((E)-N-cyano-S-methylsulfinimidoyl)acetamide]: the IC50 in [7] is under 0.01 µM. Further, the EC50 in the data set with NQO1 was in the range of 0.01 to 0.1 µM.

Consider `CC1(C)C(=O)C(C#N)=C[C@]2(C)C3=CC(=O)[C@@H]4[C@@H]5C[C@@](C)(c6nnco6)CC[C@]5(C)CC[C@@]4(C)[C@]3(C)CC[C@@H]12` [Example 9, (4aR,6aS,6bR,8aS,11S,12aS,12bR,14bS)-4,4,6a,6b,8a,11,14b-heptamethyl-11-(1,3,4-oxadiazol-2-yl)-3,13-dioxo-3,4,4a,5,6,6a,6b,7,8,8a,9,10,11,12,12a,12b,13,14b-octadecahydropicene-2-carbonitrile], for which the IC50 in [7] was under 0.01 µM; at CYP2C9 it was 3.1 µM; on CYP3A4 it was 0.3 µM; at CYP1A2, over 50 µM; against CYP2D6, 28.7 µM; against CYP2C19, 13.3 µM. In data set [1] (IV (1 mg/kg)), this molecule had a C0 of 0.427 µg/mL. The molecule also showed a clearance in [1] (IV (1 mg/kg)) of 3.36 L/h/kg. For the same molecule, the results for the half-life in data set [1] (IV (1 mg/kg)) and in [1] (Oral (5 mg/kg)) were 90 min and 132 min, respectively. For the same molecule, the AUC(0-t) in data set [1] (IV (1 mg/kg)) is 0.301 µg·h/mL; in data set [1] (Oral (5 mg/kg)) it was 0.333 µg·h/mL. Moreover, the Cmax in data set [1] (Oral (5 mg/kg)) is 0.143 µg/mL. In data set [1], the bioavailability was 22.1%. The CLint scaled at 1 μM in [2] was found to be 11.2 L/h/kg; in data set [3], 6.27 L/h/kg; in data set [4], 16.2 L/h/kg; in [5], 5.64 L/h/kg; in data set [6] it was 4.33 L/h/kg. Also, the half-life at 1 μM in [2] was 29.5 min; in data set [3], 19.1 min; in [4], 6.9 min; in data set [5], 13.3 min; in data set [6], 34.6 min.

Regarding `CC1(C)C(=O)C(C#N)=C[C@]2(C)C3=CC(=O)[C@@H]4[C@@H]5C[C@@](C)(N6CCC(O)C6)CC[C@]5(C)CC[C@@]4(C)[C@]3(C)CC[C@@H]12` (stereo partly drawn) [Example 20, (4aR,6aS,6bR,8aS,11S,12aS,12bR,14bS)-11-(3-hydroxypyrrolidin-1-yl)-4,4,6a,6b,8a,11,14b-heptamethyl-3,13-dioxo-3,4,4a,5,6,6a,6b,7,8,8a,9,10,11,12,12a,12b,13,14b-octadecahydropicene-2-carbonitrile], the IC50 in data set [7] was under 0.01 µM; against CYP2C9 it was 8.6 µM; against CYP3A4, 3.2 µM; on CYP1A2 it was over 50 µM; against CYP2D6, over 50 µM; on CYP2C19, 18.9 µM. The molecule also displayed a concentration for a half-maximal effect (EC50) in the data set on NQO1 of under 0.01 µM.
